Measured values taken from patent US20230034660A1, “PEPTIDES THAT ENHANCE NMDA RECEPTOR FUNCTION AND USE THEREOF” (University of Pittsburgh - Of the Commonwealth System of …, priority 2019, published 2023).

Molecular target: T1, ZnT1 binding to GluN2A C-terminal peptide sequences (Mus musculus, UniProt Q60738)
T1 construct: made in house; peptides: Fmoc spot synthesis on nitrocellulose
T1 sequence (Q60738 1-503): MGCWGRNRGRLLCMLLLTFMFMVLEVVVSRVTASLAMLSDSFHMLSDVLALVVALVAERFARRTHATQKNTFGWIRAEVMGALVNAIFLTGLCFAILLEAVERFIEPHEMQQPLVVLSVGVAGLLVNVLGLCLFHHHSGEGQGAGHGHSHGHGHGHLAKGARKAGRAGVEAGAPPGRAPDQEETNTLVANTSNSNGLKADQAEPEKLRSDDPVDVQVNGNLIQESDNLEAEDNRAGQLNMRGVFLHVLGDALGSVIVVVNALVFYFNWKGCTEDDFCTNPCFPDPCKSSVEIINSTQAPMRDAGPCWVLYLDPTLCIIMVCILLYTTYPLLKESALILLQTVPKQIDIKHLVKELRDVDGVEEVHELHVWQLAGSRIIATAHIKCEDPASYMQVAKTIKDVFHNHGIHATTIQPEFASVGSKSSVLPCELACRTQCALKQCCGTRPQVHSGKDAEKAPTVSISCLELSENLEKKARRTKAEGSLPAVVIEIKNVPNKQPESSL
Assay: Peptide spot array repeated in the presence of N2AZ or scN2AZ
Details: 100 μM, compared to scN2AZ control
Procedure: FIG. 2: N2AZ reduces ZnT1 binding to GluN2A C-terminal peptide sequences. Quantification of peptide spot arrays of GluN2A C-terminus region (residues 1390-1464) using the same peptide segments as FIG. 1B (Peptides 1-61 correspond to fragments of SEQ ID NO: 21, as listed in Table 1). […] Mean±SEM (n=4). (Inset) Representative peptide spot-array in scN2AZ (top) and N2AZ (bottom).
Far-Western protein-binding affinity assays were performed as previously described (Brittain et al., 2011; Yeh et al., 2017) (Moutal et al., 2017). Peptide spot arrays (15 mers) spanning the proximal C-terminus residues 1390-1464 of mouse GluN2A (Uniprot# P35436) in overlapping 1 aa steps were constructed using the Spots-synthesis method. Standard 9-fluorenylmethoxy carbonyl (Fmoc) chemistry was used to synthesize the peptides and spot them onto nitrocellulose membranes pre-derivatized with a polyethylene glycerol spacer (Intavis). […] Finally, the membrane was incubated in secondary antibody for 45 minutes, washed 3 times for 5 minutes in TBST, and visualized by infrared fluorescence (Li-Cor). […]
To study the effect of ZnT1 on NMDAR modulation, a peptide was designed to disrupt the ZnT1-GluN2A interaction. […] Next, the peptide spot arrays were probed with flag-tagged ZnT1-enriched cell lysates and ZnT1 binding was visualized and quantified with immunofluorescence against the flag tag (FIG. 1A). […]

## NDSYLRSSL [Peptide N2AZ]
  ZnT1 binding to the spot array in the presence of peptide: significantly reduced
